Measured values taken from US20170231949A1, “CELL REPAIR AGENT AND DISINFECTION SYSTEM” (priority 2014, published 2017).

What was measured:
Type in all cases: cell-based
[1] = tested on: mouse fibroblasts in growth phase; assay: Tests 4, 6, 7, 8: post-treatment after acidic electrolyzed water, degree of cell proliferation by MTT method; conditions: 24 hours culture
Protocol: (§1) Similarly to Test 1, mouse fibroblasts in growth phase were treated with four-fold-diluted acidic electrolyzed water and undiluted acidic electrolyzed water for 30 seconds. After washing with phosphate-buffered saline, 100 μl of 140 mM DMSO or 1 mg/ml proanthocyanidin prepared with serum-free DMEM was added to each well, and then cells were cultured for 30 minutes under conditions of 37° C. and 5% CO2. After washing with PBS, fresh medium was added, and then the degree of cell proliferation after 24 hours of culture under conditions of 37° C. and 5% CO2 was determined by the MTT method. In addition, a significant difference between groups was tested by Tukey-Krammer's multiple comparison test (multiple comparative analysis).
as §1, with “4,” for “1,”, “PBS,” for “phosphate-buffered saline,”, “of” for “of 140 mM DMSO or”, “(+)-catechin (Tokyo Chemical Industry Co., Ltd.)” for “proanthocyanidin”, “followed by” for “and then cells were cultured for”, “minutes of culture” for “minutes”
Similarly to Test 4, mouse fibroblasts in growth phase were treated with undiluted acidic electrolyzed water for 30 seconds. After washing with PBS, 100 μl of 1 mg/ml chlorogenic acid (Sigma-Aldrich), caffeic acid (Tokyo Chemical Industry Co., Ltd.) or gallic acid (Tokyo Chemical Industry Co., Ltd.) prepared with serum-free DMEM was added to each well, followed by 5 or 30 minutes of culture under conditions of 37° C. and 5% CO2. After washing with PBS, fresh medium was added, and then the degree of cell proliferation after 24 hours of culture under conditions of 37° C., 5% CO2 was determined by the MTT method. In addition, a significant difference between groups was tested by Tukey-Krammer's multiple comparison test (multiple comparative analysis).
Similarly to Test 4, mouse fibroblasts in growth phase were treated with undiluted acidic electrolyzed water for 30 seconds. After washing with PBS, 100 μl of 1 mg/ml proanthocyanidin prepared with serum-free DMEM was added to each well, and the resultants were each left to sit at room temperature for 1 minute and 5 minutes. After washing with PBS, fresh medium was added, and then the degree of cell proliferation after 24 hours of culture under conditions of 37° C. and 5% CO2 was determined by the MTT method. In addition, a significant difference between groups was tested by Tukey-Krammer's multiple comparison test (multiple comparative analysis).

[2] = tested on: human gingival fibroblasts in growth phase; assay: Test 5: post-treatment after acidic electrolyzed water, degree of cell proliferation by MTT method; conditions: four-fold-diluted or undiluted AEW 30 seconds, then 140 mM DMSO or 1 mg/ml proanthocyanidin for 30 minutes; 24 hours culture
Protocol: A test similar to Test 4 was conducted for human gingival fibroblasts in growth phase. First, human gingival fibroblasts (purchased from Primary Cell Co., Ltd.) were cultured in a 25 cm^2 flask under conditions of 37° C. and 5% CO2, and then a cell suspension was prepared similarly to the case of mouse fibroblasts in medium to a cell density of 2×10^4 cells/ml. 100 μl each of the cell suspension was seeded to each well of a 96-well microplate.

[3] = tested on: mouse fibroblasts in stationary phase; assay: Test 3: impact of DMSO and proanthocyanidin on intracellular ROS levels increased by acidic electrolyzed water; conditions: four-fold-diluted or undiluted AEW 30 seconds, then 140 mM DMSO or 1 mg/ml proanthocyanidin, 1 hour
Protocol: Specifically, 100 μl of 1 mM 2',7'-dichlorodihydrofluorescin Diacetate (DCFH-DA) dissolved in serum-free medium (DMEM only) was added to each well, and then cells were cultured for 1 hour under conditions of 37° C. and 5% CO2. After culture, washing with phosphate-buffered saline was performed, 100 μl of 2× Cell Lysis Buffer (Cell Biolabs) and 100 μl of serum-free DMEM were added, and then the resultants were left to stand for 5 minutes. 150 μl of the resultants was transferred from each well to a black 96-well microplate, fluorescence intensities were measured at an excitation wavelength of 450 nm and a fluorescence wavelength of 530 nm using a microplate reader (“FilterMaxTM F5 Multi-Mode Microplate Reader”, Molecular Devices). A standard curve was prepared using 2',7'-dichlorodihydrofluorescein (DCF), and intracellular ROS levels were represented by DCF equivalents (nM). In addition, a significant difference to the average value of each control group (control) was tested by Dunnett's multiple comparison test (multiple comparative analysis). Similarly to Test 2, mouse fibroblasts in stationary phase were treated with four-fold-diluted acidic electrolyzed water and undiluted acidic electrolyzed water for 30 seconds. […] After culture, similarly to Test 2, intracellular ROS levels were determined.

[4] = undiluted AEW 30 seconds, then 1 mg/ml test substance for 5 or 30 minutes

Question: How did the “cell proliferation state (degree of cell proliferation, MTT)” value (from here on “cell proliferation state”) ([1]; four-fold-diluted and undiluted AEW 30 seconds, then 1 mg/ml (+)-catechin for 30 minutes) turn out when `Oc1cc(O)c2c(c1)O[C@H](c1ccc(O)c(O)c1)[C@@H](O)C2` [(+)-catechin] was run?
Answer: The value was “significantly improved”.

Question: `C[S+](C)[O-]` [DMSO, dimethyl sulfoxide] was tested. Which “cell proliferation state” value ([1]; four-fold-diluted and undiluted AEW 30 seconds, then 140 mM DMSO or 1 mg/ml proanthocyanidin for 30 minutes) did it give?
Answer: Its value is “no change”.

Question: And the “cell proliferation state” value [2]?
Answer: The value was “no change”.

Question: What about the “ROS level increased by acidic electrolyzed water” value [3] of the same molecule?
Answer: Its value is “significantly decreased”.

Question: With `O=C(O)/C=C/c1ccc(O)c(O)c1` [caffeic acid] as the molecule, how does the “cell proliferation state” value [1, 4] read?
Answer: Its value is “significantly improved”.

Question: With `O=C(/C=C/c1ccc(O)c(O)c1)O[C@@H]1C[C@](O)(C(=O)O)C[C@@H](O)[C@H]1O` [chlorogenic acid] as the molecule, how does the “cell proliferation state” value [1, 4] read?
Answer: Its value is “significantly improved”.

Question: How did the “cell proliferation state” value [1, 4] turn out when `O=C(O)c1cc(O)c(O)c(O)c1` [gallic acid] was run?
Answer: The value was “significantly improved”.
